Measurements published in the SangsterLogP compilation.

Test: method code SF, from DOI: 10.1016/0223-5234(90)90141-o
Details: pH 7.4

logD | SMILES
0.53 | COc1cc(S(C)=O)ccc1-c1nc2ncncc2[nH]1 (stereo unspecified)
0.39 | COc1cc(S(C)=O)ccc1-c1nc2cnncc2[nH]1 (stereo unspecified)
2.42 | COc1ccc(-c2nc3cnccc3o2)c(OC)c1
1.66 | COc1cccc(OC)c1-c1nc2cnccc2[nH]1
2.68 | COc1ccc(-c2nc3ccncc3n2C)c(OC)c1
1.23 | COc1cc(S(C)=O)ccc1-c1nc2cnccc2[nH]1 (stereo unspecified)
2.15 | COc1cc(S(C)=O)ccc1-c1nc2cnccc2n1C (stereo unspecified)
0.23 | COc1cc(S(C)=O)ccc1-c1nc2nnccc2[nH]1 (stereo unspecified)
2.21 | COc1cc(S(C)=O)ccc1-c1nc2cnccc2s1 (stereo unspecified)
0.66 | COc1cc(S(C)=O)ccc1-c1nc2nccnc2[nH]1 (stereo unspecified)
2.66 | COc1ccc(-c2nc3cnccc3n2C)c(OC)c1
